Reference: the supplement of paper PMC10883282

Experiments:
Assay in all cases: relative viability vs DMSO control (72 h) (fraction); higher = more viable cells
A204 = test system: A204
Procedure, shortened: (§1)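 Densities for seeding sarcoma cell lines into 384-well plates were set to give 80–90% confluence. After 24 h, 2.5 µl of serially diluted compound from source plates of 10 mM to 0.0002 mM went in, and plates stayed 72 h at 37 °C in 5% CO2 with 0.1% DMSO vehicle and a 5 µM positive control. Percent growth from ATPLite readings, averaged over up to triplicate wells, served as relative viability, rescaled so 1 means full and 0 means none.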

G401 = test system: G401
Procedure, shortened: as §1

HS729 = test system: HS729
Procedure, shortened: as §1

KHOS-240S = test system: KHOS-240S
Procedure, shortened: as §1

MES-SA = test system: MES-SA
Procedure, shortened: as §1

RD = test system: RD
Procedure, shortened: as §1

SK-ES-1 = test system: SK-ES-1
Procedure, shortened: as §1

SK-LMS-1 = test system: SK-LMS-1
Procedure, shortened: as §1

SW1353 = test system: SW1353
Procedure, shortened: as §1

SW872 = test system: SW872
Procedure, shortened: as §1

SW982 = test system: SW982
Procedure, shortened: as §1

VA-ES-BJ = test system: VA-ES-BJ
Procedure, shortened: as §1

C[C@@H]1CN(C(=O)c2ccc(NC(=O)c3cc(O[C@H](C)c4c(Cl)ccc(F)c4Cl)c(N)nn3)cc2)C[C@H](C)N1 [Ensartinib]
Conditions	relative viability
A204, 0.00017 µM	1.069
A204, 0.00051 µM	1.07
A204, 0.00152 µM	1.06
A204, 0.00457 µM	1.05
A204, 0.01372 µM	1.05
A204, 0.04115 µM	1.05
A204, 0.1235 µM	1.04
A204, 0.3704 µM	1.06
A204, 1.111 µM	0.98
A204, 3.333 µM	0.806
A204, 10 µM	0.326
G401, 0.00017 µM	0.954
G401, 0.00051 µM	0.983
G401, 0.00152 µM	0.98
G401, 0.00457 µM	0.9873
G401, 0.01372 µM	1.01
G401, 0.04115 µM	1.019
G401, 0.1235 µM	1.05
G401, 0.3704 µM	0.946
G401, 1.111 µM	0.771
G401, 3.333 µM	0.49
G401, 10 µM	0.0293
HS729, 0.00017 µM	0.96
HS729, 0.00051 µM	1.02
HS729, 0.00152 µM	1.03
HS729, 0.00457 µM	1.01
HS729, 0.01372 µM	0.998
HS729, 0.04115 µM	0.986
HS729, 0.1235 µM	0.955
HS729, 0.3704 µM	0.888
HS729, 1.111 µM	0.764
HS729, 3.333 µM	0.594
HS729, 10 µM	0.207
KHOS-240S, 0.00017 µM	0.995
KHOS-240S, 0.00051 µM	1.02
KHOS-240S, 0.00152 µM	1.02
KHOS-240S, 0.00457 µM	1
KHOS-240S, 0.01372 µM	1.03
KHOS-240S, 0.04115 µM	1.02
KHOS-240S, 0.1235 µM	1.01
KHOS-240S, 0.3704 µM	0.994
KHOS-240S, 1.111 µM	0.847
KHOS-240S, 3.333 µM	0.579
KHOS-240S, 10 µM	0.135
MES-SA, 0.00017 µM	0.921
MES-SA, 0.00051 µM	0.896
MES-SA, 0.00152 µM	0.938
MES-SA, 0.00457 µM	0.929
MES-SA, 0.01372 µM	0.932
MES-SA, 0.04115 µM	0.926
MES-SA, 0.1235 µM	0.961
MES-SA, 0.3704 µM	0.933
MES-SA, 1.111 µM	0.498
MES-SA, 3.333 µM	0.296
MES-SA, 10 µM	0.1
RD, 0.00017 µM	1.01
RD, 0.00051 µM	1.02
RD, 0.00152 µM	1.06
RD, 0.00457 µM	1.06
RD, 0.01372 µM	1.028
RD, 0.04115 µM	1.028
RD, 0.1235 µM	0.972
RD, 0.3704 µM	0.9011
RD, 1.111 µM	0.683
RD, 3.333 µM	0.561
RD, 10 µM	0.0738
SK-ES-1, 0.00017 µM	0.934
SK-ES-1, 0.00051 µM	0.966
SK-ES-1, 0.00152 µM	0.987
SK-ES-1, 0.00457 µM	1
SK-ES-1, 0.01372 µM	0.974
SK-ES-1, 0.04115 µM	0.972
SK-ES-1, 0.1235 µM	0.97
SK-ES-1, 0.3704 µM	0.857
SK-ES-1, 1.111 µM	0.457
SK-ES-1, 3.333 µM	0.0368
SK-ES-1, 10 µM	0.00643
SK-LMS-1, 0.00017 µM	0.995
SK-LMS-1, 0.00051 µM	0.9982
SK-LMS-1, 0.00152 µM	1.01
SK-LMS-1, 0.00457 µM	1.04
SK-LMS-1, 0.01372 µM	1.03
SK-LMS-1, 0.04115 µM	1.02
SK-LMS-1, 0.1235 µM	1.01
SK-LMS-1, 0.3704 µM	0.83
SK-LMS-1, 1.111 µM	0.656
SK-LMS-1, 3.333 µM	0.53
SK-LMS-1, 10 µM	0.0598
SW872, 0.00017 µM	1.02
SW872, 0.00051 µM	1.03
SW872, 0.00152 µM	1.04
SW872, 0.00457 µM	1.05
SW872, 0.01372 µM	1.06
SW872, 0.04115 µM	1.04
SW872, 0.1235 µM	1.03
SW872, 0.3704 µM	1.01
SW872, 1.111 µM	0.835
SW872, 3.333 µM	0.583
SW872, 10 µM	0.188
SW982, 0.00017 µM	0.966
SW982, 0.00051 µM	0.95947
SW982, 0.00152 µM	0.986
SW982, 0.00457 µM	0.973
SW982, 0.01372 µM	0.97
SW982, 0.04115 µM	0.965
SW982, 0.1235 µM	0.982
SW982, 0.3704 µM	0.855
SW982, 1.111 µM	0.513
SW982, 3.333 µM	0.206
SW982, 10 µM	0.009967
SW1353, 0.00017 µM	0.959
SW1353, 0.00051 µM	0.938
SW1353, 0.00152 µM	0.985
SW1353, 0.00457 µM	0.956
SW1353, 0.01372 µM	0.955
SW1353, 0.04115 µM	0.969
SW1353, 0.1235 µM	0.957
SW1353, 0.3704 µM	0.966
SW1353, 1.111 µM	0.955
SW1353, 3.333 µM	0.77
SW1353, 10 µM	0.0145
VA-ES-BJ, 0.00017 µM	1.05
VA-ES-BJ, 0.00051 µM	1.02
VA-ES-BJ, 0.00152 µM	1.03
VA-ES-BJ, 0.00457 µM	1.03
VA-ES-BJ, 0.01372 µM	1.06
VA-ES-BJ, 0.04115 µM	1.05
VA-ES-BJ, 0.1235 µM	1.02
VA-ES-BJ, 0.3704 µM	0.855
VA-ES-BJ, 1.111 µM	0.662
VA-ES-BJ, 3.333 µM	0.489
VA-ES-BJ, 10 µM	0.362
